# Measurements reported in US20160157477A1, “USE OF VISUAL CUES TO ENHANCE BIRD REPELLENT COMPOSITIONS” (ARKION LIFE SCIENCES, LLC, priority 2014, published 2016).
# Experiments:
# red-winged blackbirds [1] = test: Threshold AQ concentration previously established for red-winged blackbirds (Werner et al. 2009); assay type: in vivo, red-winged blackbirds (Agelaius phoeniceus); settings: 80% repellency, anthraquinone only, interpolated between the 70% and 100% values
# Experimental: The concentration response of AQ plus TiO2 feeding cue was tested. This experiment was designed to establish a concentration response relationship of AQ plus 0.2% TiO2 treated sunflower seeds for blackbirds in captivity. The experiment was also designed to establish a threshold concentration of AQ necessary for blackbird feeding repellency when reduced by varying the concentration of AQ based repellent combined with a TiO2 feeding cue. This optimized AQ concentration was expected to be less than the threshold AQ concentration previously established for red-winged blackbirds done by Werner et al. (2009) and shown in column 2 of Table 1. Daily sunflower consumption was measured throughout the pretreatment and test phases of the experiment as previously described. Greater than 80% repellency during a captive feeding trial is the operational level for an effective repellent as has been documented in the field using AQ repellents, see Werner et al. (2009) and (2011).
# red-winged blackbirds [2] = settings: anthraquinone only, cited from earlier work
# birds = settings: '678 patent; cited from earlier work
smiles,measurement,setting,value
"O=C1c2ccccc2C(=O)c2ccccc21 [Anthraquinone Only, 9,10-anthraquinone]",[AQ] ppm by weight for RWBL Repellency 80% (expected AQ concentration),red-winged blackbirds [1],1737 ((1846 − ppm by weight
same,[AQ] ppm by weight for RWBL Repellency 80% (expected AQ concentration),red-winged blackbirds [1]; listed as AQ,1737 ppm by weight
same,[AQ] ppm by weight for RWBL Repellency 80% (expected AQ concentration),red-winged blackbirds [1]; listed as straight AQ,1737 ppm by weight
same,[AQ] ppm by weight for RWBL Repellency 20%,red-winged blackbirds [2]; 20% repellency,193 (222*20/23) ppm by weight
same,[AQ] ppm by weight for RWBL Repellency 35%,red-winged blackbirds [2]; 35% repellency,572 (556*34/35) ppm by weight
same,[AQ] ppm by weight for RWBL Repellency 50%,red-winged blackbirds [2]; 50% repellency,538 (560*50/52) ppm by weight
same,[AQ] ppm by weight for RWBL Repellency 70%,red-winged blackbirds [2]; 70% repellency,1682 (1778*74/70) ppm by weight
same,[AQ] ppm by weight for RWBL Repellency 100%,red-winged blackbirds [2]; 100% repellency,1846 (1994*100/108) ppm by weight
same,AQ concentration to achieve 74% repellency,birds,1778 ppm
